System: Zucker diabetic fatty (ZDF Gmi-fa/fa) rats
Assay: Oral Glucose Tolerance Test (OGTT) in Zucker diabetic fatty rats, Day 7 (Example 15)
Format: in vivo, rat
Settings: for AUC for blood glucose (OGTT) / OGTT blood glucose 30 min / OGTT blood glucose 60 min / OGTT blood glucose 90 min / OGTT blood glucose 120 min: Day 7; for OGTT blood glucose 0 min: Day 7, 4 hour-fasted, 2g/kg glucose
Description: Compound #8 was suspended in 0.5% Methocel using a hand held homogenizer to reduce the particle size and a magnetic stir bar and stir plate to keep the particles homogeneously suspended throughout the dosing period. 0.5% Hydroxypropyl Methylcellulose (Methocel) used as vehicle/control. Compound #8 was tested in both diabetic models of mouse and rat.
In this study, female Zucker diabetic fatty (ZDF Gmi-fa/fa) rats were selected for glucose lowering effect and oral glucose tolerance test (OGTT) studies. ZDF rats from (Charles River Laboratories, Wilmington, Mass.) at 7 weeks of age were individually housed and fed with C13004 diet (obtained from Research Diets, New Brunswick, N.J.). All of the rats were quarantined for a period of one week before transfer to the animal procedure room. A drop of blood (about 2 microliters) was collected by tail puncture and glucose concentration was detected with a glucometer (OneTouch UltraSmart, Lifescan, Milpitas, Calif.).
ZDF rats at 8 weeks of age were randomized into four treatment groups based on glucose values (first criterion, average of 150 mg/dL) and body weight (second criterion, average of 240 g). 32 rats were allocated into 4 treatment groups of 8 rats each. The four groups were then treated with 0.5% Methocel (vehicle), 10 mg/kg Compound #8, 30 mg/kg Compound #8, and 100 mg/kg Compound #8 in vehicle, respectively.
The rats were orally gavaged once daily (at 1500-1700 hour) with vehicle control (0.5% Methocel, pH7.4) or vehicle containing Compound #8 for 7 days. The dosing volume was 5 mL/kg body weight (1.2 mL for 250 gram rat). The rats were fed ad lib throughout the study.
Basal glucose levels after treatments were measured on Day 4 and Day 6 in 2 hour fasted rats with a glucometer (OneTouch UltraSmart, Lifescan, Milpitas, Calif.) after collecting two microliters of blood through tail puncture. Oral Glucose Tolerance Test (OGTT) was performed on Day 7 in 4 hour-fasted rats. Two hours after being dosed with Compound #8 or vehicle, the rats were gavaged with a 2g/kg of 50% glucose solution right after basal glucose levels measurement (0 minute). Blood glucose levels were then measured at 30, 60, 90 and 120 minutes through tail puncture.
Data from this study was analyzed using the standard two-tailed Student's t-test and are expressed below as means and standard errors.

In the case of `NS(=O)(=O)NC[C@H]1COc2cc(Cl)ccc2O1` [Compound #8, (2S)-(−)-N-(6-Chloro-2,3-dihydro-benzo[1,4]dioxin-2-ylmethyl)-sulfamide], the “AUC for blood glucose (OGTT)” value (10 mg/kg) is reported as 33279 ± 3607 mg·min/dL, the “OGTT blood glucose 30 min” value (10 mg/kg) is reported as 281 ± 30 and the “OGTT blood glucose 60 min” value (10 mg/kg) is reported as 316 ± 33. For the same compound, the “OGTT blood glucose 90 min” value (10 mg/kg) was 293 ± 24, the “OGTT blood glucose 120 min” value (10 mg/kg) was 252 ± 30 and the “OGTT blood glucose 0 min” value (10 mg/kg) was 186 ± 30. For the same compound, the “AUC for blood glucose (OGTT)” value (30 mg/kg) was 28556 ± 2477 mg·min/dL, the “OGTT blood glucose 30 min” value (30 mg/kg) was 244 ± 24 and the “OGTT blood glucose 60 min” value (30 mg/kg) was 263 ± 18. The “OGTT blood glucose 90 min” value (30 mg/kg) was 253 ± 23, the “OGTT blood glucose 120 min” value (30 mg/kg) was 221 ± 18 and the “OGTT blood glucose 0 min” value (30 mg/kg) was 163 ± 18. For the same compound, the “AUC for blood glucose (OGTT)” value (100 mg/kg) was 21529 ± 984 mg·min/dL, the “OGTT blood glucose 30 min” value (100 mg/kg) was 209 ± 14 and the “OGTT blood glucose 60 min” value (100 mg/kg) was 200 ± 10. For the same compound, the “OGTT blood glucose 90 min” value (100 mg/kg) was 175 ± 8, the “OGTT blood glucose 120 min” value (100 mg/kg) was 145 ± 7 and the “OGTT blood glucose 0 min” value (100 mg/kg) was 123 ± 5.
